Test results published in ChEMBL document CHEMBL1138978, “Studies toward the discovery of the next generation of antidepressants. Part 5: 3,4-Dihydro-2H-benzo[1,4]oxazine derivatives with dual 5-HT1A receptor and serotonin transporter affinity” (Bioorg Med Chem Lett, 2006).

Molecular target: Sodium-dependent serotonin transporter (Rattus norvegicus, UniProt P31652)
Assay: Displacement of [3H]paroxetine from rat cortical 5-HT reuptake

Chain of Sodium-dependent serotonin transporter (P31652 whole entry): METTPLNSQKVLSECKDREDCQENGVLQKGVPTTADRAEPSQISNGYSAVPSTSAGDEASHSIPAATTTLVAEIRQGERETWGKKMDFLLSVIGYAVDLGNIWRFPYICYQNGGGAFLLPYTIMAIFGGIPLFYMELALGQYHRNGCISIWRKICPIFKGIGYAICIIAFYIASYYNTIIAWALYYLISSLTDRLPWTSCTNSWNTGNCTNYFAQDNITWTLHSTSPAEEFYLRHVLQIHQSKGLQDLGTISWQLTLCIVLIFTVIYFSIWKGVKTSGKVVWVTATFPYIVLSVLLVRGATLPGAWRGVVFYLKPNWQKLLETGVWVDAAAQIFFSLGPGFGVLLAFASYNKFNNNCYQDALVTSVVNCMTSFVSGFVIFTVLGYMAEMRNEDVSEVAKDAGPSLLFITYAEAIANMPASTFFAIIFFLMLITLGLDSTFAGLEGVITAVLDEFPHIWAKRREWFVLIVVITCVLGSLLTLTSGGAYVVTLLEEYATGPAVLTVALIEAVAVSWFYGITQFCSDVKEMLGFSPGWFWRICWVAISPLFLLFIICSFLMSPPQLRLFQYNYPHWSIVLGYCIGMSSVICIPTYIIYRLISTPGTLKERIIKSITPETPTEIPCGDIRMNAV

| Ki [nM] | SMILES |
| --- | --- |
| 12.4 | CN1CC(CNCCc2c[nH]c3ccc(F)cc23)Oc2ccccc21 (stereo not given) |
| 89.8 | c1ccc2c(c1)NCC(CNCCc1c[nH]c3ccccc13)O2 (stereo not given) |

The remaining lines, values behind:

| SMILES | Ki [nM] |
| --- | --- |
| CC(C)CN1CC(CNCCc2c[nH]c3ccc(F)cc23)Oc2ccccc21 (stereo not given) | 51.5 |
| CC(C)N1CC(CNCCCc2c[nH]c3ccccc23)Oc2ccccc21 (stereo not given) | 23.8 |
| c1ccc(CN2CC(CNCCCc3c[nH]c4ccccc34)Oc3ccccc32)cc1 (stereo not given) | 109 |
| CC(C)N1CC(CNCCc2c[nH]c3ccc(F)cc23)Oc2ccccc21 (stereo not given) | 21.1 |
| CN1CC(CNCCc2c[nH]c3ccccc23)Oc2ccccc21 (stereo not given) | 88.5 |

Molecular target: T1, 5-hydroxytryptamine receptor 1A (Homo sapiens) (UniProt P08908)
T1 sequence (whole entry): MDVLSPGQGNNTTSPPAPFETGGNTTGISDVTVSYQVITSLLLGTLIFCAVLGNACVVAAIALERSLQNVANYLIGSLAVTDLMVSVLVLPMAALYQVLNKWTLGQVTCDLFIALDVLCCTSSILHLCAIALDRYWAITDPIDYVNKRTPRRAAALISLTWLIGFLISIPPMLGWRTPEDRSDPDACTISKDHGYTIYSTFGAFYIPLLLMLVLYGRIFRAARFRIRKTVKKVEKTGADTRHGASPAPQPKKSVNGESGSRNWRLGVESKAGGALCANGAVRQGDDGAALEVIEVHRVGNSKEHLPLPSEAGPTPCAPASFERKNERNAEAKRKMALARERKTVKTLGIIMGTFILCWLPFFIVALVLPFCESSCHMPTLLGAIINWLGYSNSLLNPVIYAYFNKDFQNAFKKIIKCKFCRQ
Assay: Agonist activity assessed by stimulation of [35S]GTPgammaS binding in CHO cells expressing 5HT1A receptor relative to 5HT
Assay type: functional, cell-based

| Emax [%] | SMILES |
| --- | --- |
| 80 | CN1CC(CNCCc2c[nH]c3ccc(F)cc23)Oc2ccccc21 (stereo not given) |
| 96 | c1ccc2c(c1)NCC(CNCCc1c[nH]c3ccccc13)O2 (stereo not given) |

The remaining lines, values behind:

| SMILES | Emax [%] |
| --- | --- |
| CC(C)CN1CC(CNCCc2c[nH]c3ccc(F)cc23)Oc2ccccc21 (stereo not given) | 88 |
| CC(C)N1CC(CNCCCc2c[nH]c3ccccc23)Oc2ccccc21 (stereo not given) | 88 |
| c1ccc(CN2CC(CNCCCc3c[nH]c4ccccc34)Oc3ccccc32)cc1 (stereo not given) | 64 |
| CC(C)N1CC(CNCCc2c[nH]c3ccc(F)cc23)Oc2ccccc21 (stereo not given) | 90 |
| CN1CC(CNCCc2c[nH]c3ccccc23)Oc2ccccc21 (stereo not given) | 95 |

Molecular target: Sodium-dependent serotonin transporter (Rattus norvegicus) (UniProt P31652)
Assay: Inhibition of [3H]paroxetine binding to rat cortical 5-HT reuptake at 100 nM

Chain of Sodium-dependent serotonin transporter (Rattus norvegicus) (P31652 whole entry): as the sequence (P31652 whole entry) above

| inhibition [%] | SMILES |
| --- | --- |
| 23 | Fc1ccc2[nH]cc(CCNCC3CN(Cc4ccccc4)c4ccccc4O3)c2c1 (stereo not given) |
| 23 | c1ccc(N2CC(CNCCc3c[nH]c4ccccc34)Oc3ccccc32)cc1 (stereo not given) |

More lines, now with the values behind:

| SMILES | inhibition [%] |
| --- | --- |
| Fc1ccc2[nH]cc(CCNCC3CN(c4ccccc4)c4ccccc4O3)c2c1 (stereo not given) | 43 |
| c1ccc(N2CC(CNCCCc3c[nH]c4ccccc34)Oc3ccccc32)cc1 (stereo not given) | 7 |

Molecular target: T2, 5-hydroxytryptamine receptor 1A (Homo sapiens, UniProt P08908)
T2 sequence (P08908 whole entry): T1 sequence (whole entry)
Assay: Intrinsic activity assessed by stimulation of [35S]GTP-gamma-S binding in CHO cells expressing 5HT1A receptor
Assay type: functional, cell-based

| EC50 [nM] | SMILES |
| --- | --- |
| 167 | CN1CC(CNCCc2c[nH]c3ccc(F)cc23)Oc2ccccc21 (stereo not given) |
| 93.5 | c1ccc2c(c1)NCC(CNCCc1c[nH]c3ccccc13)O2 (stereo not given) |

The remaining lines, values behind:

| SMILES | EC50 [nM] |
| --- | --- |
| CC(C)CN1CC(CNCCc2c[nH]c3ccc(F)cc23)Oc2ccccc21 (stereo not given) | 329 |
| CC(C)N1CC(CNCCCc2c[nH]c3ccccc23)Oc2ccccc21 (stereo not given) | 329 |
| c1ccc(CN2CC(CNCCCc3c[nH]c4ccccc34)Oc3ccccc32)cc1 (stereo not given) | 1380 |
| CC(C)N1CC(CNCCc2c[nH]c3ccc(F)cc23)Oc2ccccc21 (stereo not given) | 191 |
| CN1CC(CNCCc2c[nH]c3ccccc23)Oc2ccccc21 (stereo not given) | 33.6 |

Molecular target: Adrenergic receptor alpha-1 (Rattus norvegicus) (UniProt P15823+P23944+P43140)
Assay: Inhibition of [3H]prazosin binding to adrenergic alpha-1 receptor in rat cortical membrane at 100 nM
Assay type: cell membranes

| inhibition [%] | SMILES |
| --- | --- |
| 26 | CN1CC(CNCCc2c[nH]c3ccc(F)cc23)Oc2ccccc21 (stereo not given) |
| 26 | c1ccc2c(c1)NCC(CNCCc1c[nH]c3ccccc13)O2 (stereo not given) |

Second part, the compound before the results:

| SMILES | inhibition [%] |
| --- | --- |
| Fc1ccc2[nH]cc(CCNCC3CN(c4ccccc4)c4ccccc4O3)c2c1 (stereo not given) | 65 |
| CN1CC(CNCCc2c[nH]c3ccccc23)Oc2ccccc21 (stereo not given) | 28 |

Molecular target: T2, 5-hydroxytryptamine receptor 1A
Assay: Displacement of [3H]8-OH-DPAT from 5HT1A receptor expressed in CHO cells
Assay type: cell-based

| Ki [nM] | SMILES |
| --- | --- |
| 7.25 | Fc1ccc2[nH]cc(CCNCC3CN(Cc4ccccc4)c4ccccc4O3)c2c1 (stereo not given) |
| 8.46 | CN1CC(CNCCc2c[nH]c3ccc(F)cc23)Oc2ccccc21 (stereo not given) |
| 6.91 | c1ccc2c(c1)NCC(CNCCc1c[nH]c3ccccc13)O2 (stereo not given) |
| 30.2 | c1ccc(N2CC(CNCCc3c[nH]c4ccccc34)Oc3ccccc32)cc1 (stereo not given) |

Further lines, the compound ahead of its results:

| SMILES | Ki [nM] |
| --- | --- |
| CC(C)CN1CC(CNCCc2c[nH]c3ccc(F)cc23)Oc2ccccc21 (stereo not given) | 8.15 |
| CC(C)N1CC(CNCCCc2c[nH]c3ccccc23)Oc2ccccc21 (stereo not given) | 90.4 |
| Fc1ccc2[nH]cc(CCNCC3CN(c4ccccc4)c4ccccc4O3)c2c1 (stereo not given) | 7.14 |
| c1ccc(CN2CC(CNCCCc3c[nH]c4ccccc34)Oc3ccccc32)cc1 (stereo not given) | 76.1 |
| c1ccc(N2CC(CNCCCc3c[nH]c4ccccc34)Oc3ccccc32)cc1 (stereo not given) | 75.8 |
| CC(C)N1CC(CNCCc2c[nH]c3ccc(F)cc23)Oc2ccccc21 (stereo not given) | 2.81 |
| CN1CC(CNCCc2c[nH]c3ccccc23)Oc2ccccc21 (stereo not given) | 5.86 |
